Reference: ChEMBL document CHEMBL5033995, “Discovery and Early Clinical Development of LY3202626, a Low-Dose, CNS-Penetrant BACE Inhibitor” (J Med Chem, 2021)

Columns and labels:
[1] = Stability in rat liver microsomes at 2 uM measured upto 30 mins in presence of NADPH by LC-MS/MS analysis; format: ADME, Microsome; settings: read-out: Stability
[2] = Ratio of free drug concentration in CSF to plasma of dog; format: ADME, Canis lupus familiaris; settings: CSF and plasma
[3] = Clearance in rat at 2 mg/kg, iv by LC-MS/MS analysis; format: ADME, organism-based; settings: in vivo
[4] = Stability in human liver microsomes at 2 uM measured upto 30 mins in presence of NADPH by LC-MS/MS analysis; format: ADME, Microsome; settings: read-out: Stability
[5] = Volume of distribution at steady state in rat at 2 mg/kg, iv by LC-MS/MS analysis; format: ADME, organism-based; settings: in vivo, read-out: Vdss
[6] = Bioavailability in rat; format: ADME, organism-based; settings: in vivo
[7] = Stability in dog liver microsomes at 2 uM measured upto 30 mins in presence of NADPH by LC-MS/MS analysis; format: ADME, Canis lupus familiaris, Microsome; settings: read-out: Stability
[8] = Dissociation constant, pKa of compound; format: physicochemical
[9] = Lipophilicity, log P of the compound; format: physicochemical; settings: octanol/water
[10] = Stability in mouse liver microsomes at 2 uM measured upto 30 mins in presence of NADPH by LC-MS/MS analysis; format: ADME, Microsome; settings: read-out: Stability
[11] = Clearance in dog at 1 mg/kg, iv by LC-MS/MS analysis; format: ADME, organism-based, Canis lupus familiaris; settings: in vivo
[12] = Volume of distribution at steady state in dog at 1 mg/kg, iv by LC-MS/MS analysis; format: ADME, organism-based, Canis lupus familiaris; settings: in vivo, read-out: Vdss
[13] = Permeability in MDCK cells; format: ADME, cell-based, Canis lupus familiaris; settings: dog, read-out: permeability
[14] = Drug accumulation in human HepG2 cells lysosomes assessed as maximum fluorescence response after 24 hrs by Lysotracker Green DND-26 dye based assay; format: ADME, cell-based; settings: hepg2, 24 h
clinical = settings: human, CSF and plasma
[15] = Oral clearance in human; format: ADME

SMILES	remaining at 0.5 h, 2 µM [1] [%]	Kp uu [2]	clearance [3] [mL/min/kg]	remaining at 0.5 h, 2 µM [4] [%]	Vd [5] [L/kg]	bioavailability [6] [%]	remaining at 0.5 h, 2 µM [7] [%]	pKa [8]	logP [9]	remaining at 0.5 h, 2 µM [10] [%]	clearance [11] [mL/min/kg]	Vd [12] [L/kg]	Papp [13] [×10⁻⁶ cm/s]	Rmax [14]	Kp uu (clinical)	CL/F [15] [mL/min/kg]
Cl.NC1=N[C@@]2(c3ccns3)CN(c3ncc(F)cn3)C[C@H]2CS1		1	53.2		2.87			6.4	1.3		6	2.1	59	20		
C[C@@H]1C[C@H]1COC(C)(C)[C@@H]1C[C@H]1[C@]12CN(c3ncccn3)C[C@H]1CSC(N)=N2	98			31			79			98			36			
C[C@@H]1C[C@H]1CNC(=O)[C@@H]1C[C@H]1[C@]12CN(c3ncccn3)C[C@H]1CSC(N)=N2	55			13			28	8	2	33			8			
C[C@@H]1C[C@H]1CNC(=O)[C@@H]1C[C@H]1[C@]12COC[C@H]1CSC(N)=N2	84			19			8	8	0.8	23			14			
Cl.Cl.NC1=N[C@@]2(c3cccs3)CN(c3ncccn3)C[C@H]2CS1								7.6	1.9				59			
C[C@@]1(c2cc(-c3cncnc3)c(F)cc2F)CCSC(N)=N1 [LY-2811376]								8.8	2.9				60	3364		

More lines, now with the values ahead:

remaining at 0.5 h, 2 µM [1] [%]	Kp uu [2]	clearance [3] [mL/min/kg]	remaining at 0.5 h, 2 µM [4] [%]	Vd [5] [L/kg]	bioavailability [6] [%]	remaining at 0.5 h, 2 µM [7] [%]	pKa [8]	logP [9]	remaining at 0.5 h, 2 µM [10] [%]	clearance [11] [mL/min/kg]	Vd [12] [L/kg]	Papp [13] [×10⁻⁶ cm/s]	Rmax [14]	Kp uu (clinical)	CL/F [15] [mL/min/kg]	SMILES
7	0.2	15	13	2.2	55	7	7.7	2.8	22	2.7	0.52	30				NC1=N[C@@]2(c3cc(NC(=O)c4ncc(F)cc4F)ccc3F)CN(c3ncc(F)cn3)C[C@H]2CS1
							6.6	2.3					91			Cl.N#Cc1ccc([C@]23CN(c4ncc(F)cn4)C[C@H]2CSC(N)=N3)s1
7	0.9	20	12	5.2	47	50	7.6	3.2	27	5.2	0.78	19		1	26	COc1cnc(C(=O)Nc2ccc(F)c([C@]34CN(c5ncc(F)cn5)C[C@H]3CSC(N)=N4)c2)cn1
							7.1	0.8				54	59			Cl.NC1=N[C@@]2(c3cnccn3)CN(c3ncc(F)cn3)C[C@H]2CS1
							7.5	2.4				60	4090			Cl.NC1=N[C@@]2(c3cccs3)CN(c3ncc(F)cn3)C[C@H]2CS1
16	0.1	7.8	13	2.5	72	8	7.9	3.1	25	1.6	1.1	33				NC1=N[C@@]2(c3cc(NC(=O)c4ccc(F)cn4)ccc3F)CN(c3ncc(F)cn3)C[C@H]2CS1 (relative stereo)
19	0.9	94	11	10.4	30	0	7.7	2.1	33	4.9	2.3	55	7863			NC1=N[C@@]2(c3cc(NC(=O)c4ccc(F)cn4)ccc3F)COC[C@H]2CS1 [LY-2886721]
